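Following 48 hours of exposure in 96-well plates, responses at five concentrations were used to interpolate endpoints linearly. GI50: concentration for 50% inhibition of growth.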 Activity calls are given as the source filed them. Cut-off read from the data, not from the text of the source: active = GI50 up to about 1.1 µM and inactive = higher.
Assays:
Test in all cases: inhibition of tumour cell growth, NCI panel, 48 h
[1] = test system: K562
[2] = test system: OVCAR-4
[3] = test system: UACC-62
[4] = test system: OVCAR-5
[5] = test system: UO-31
[6] = test system: LOX IMVI
[7] = test system: SF-268
[8] = test system: A549
[9] = test system: RPMI-8226
[10] = test system: SNB-75
[11] = test system: M14
[12] = test system: NCI-H226
[13] = test system: SK-MEL-5
[14] = test system: SR
[15] = test system: OVCAR-3
[16] = test system: U-251

SMILES	GI50 [1]	GI50 [2]	GI50 [3]	GI50 [4]	GI50 [5]	GI50 [6]	GI50 [7]	GI50 [8]	GI50 [9]	GI50 [10]	GI50 [11]	GI50 [12]	GI50 [13]	GI50 [14]	GI50 [15]	GI50 [16]
O=S(=O)(O)c1cc(O)c2c(O)c(/N=N/c3ccc(/C=C/c4ccc(/N=N/c5c(S(=O)(=O)O)cc6cc(S(=O)(=O)O)cc(O)c6c5O)cc4S(=O)(=O)O)c(S(=O)(=O)O)c3)c(S(=O)(=O)O)cc2c1	> 100 µM (inactive)	> 100 µM (inactive)	> 100 µM (inactive)	> 100 µM (inactive)	> 100 µM (inactive)	> 100 µM (inactive)	> 100 µM (inactive)	> 100 µM (inactive)	> 100 µM (inactive)	> 100 µM (inactive)	> 100 µM (inactive)	> 100 µM (inactive)	> 100 µM (inactive)	> 100 µM (inactive)	> 100 µM (inactive)	> 100 µM (inactive)
Cc1ccc(/C=N/NS(=O)(=O)c2ccccc2)c(C)c1	> 100 µM (inactive)	> 100 µM (inactive)	> 100 µM (inactive)	> 100 µM (inactive)	> 100 µM (inactive)	> 100 µM (inactive)	> 100 µM (inactive)	> 100 µM (inactive)	> 100 µM (inactive)	> 100 µM (inactive)	> 100 µM (inactive)	> 100 µM (inactive)	> 100 µM (inactive)	> 100 µM (inactive)	> 100 µM (inactive)	> 100 µM (inactive)
COc1ccc(N2C(=O)C3c4[nH]c5ccccc5c4C4CCCCCCC4C3C2=O)cc1 (stereo not given)	10.1 µM (inactive)	15.9 µM (inactive)	15.9 µM (inactive)	> 52.1 µM (inactive)	17.4 µM (inactive)	5 µM (inactive)	12.7 µM (inactive)	6.76 µM (inactive)	50.4 µM (inactive)	11.9 µM (inactive)	11.9 µM (inactive)	12.4 µM (inactive)	23.8 µM (inactive)	6.52 µM (inactive)	5.93 µM (inactive)	4.06 µM (inactive)
COC(=O)c1c[nH]cc1CCCCc1c[nH]cc1C(=O)OC	> 100 µM (inactive)	> 100 µM (inactive)	–	> 100 µM (inactive)	–	> 100 µM (inactive)	> 100 µM (inactive)	> 100 µM (inactive)	–	–	–	> 100 µM (inactive)	–	> 100 µM (inactive)	> 100 µM (inactive)	> 100 µM (inactive)
CC(=O)OCC1OC(N2C(=O)C(=O)c3cc(C)ccc32)C(OC(C)=O)C(OC(C)=O)C1OC(C)=O (stereo not given)	> 100 µM (inactive)	> 100 µM (inactive)	37.4 µM (inactive)	> 100 µM (inactive)	> 100 µM (inactive)	17.1 µM (inactive)	49.5 µM (inactive)	> 100 µM (inactive)	29.4 µM (inactive)	> 100 µM (inactive)	66.5 µM (inactive)	> 100 µM (inactive)	58.7 µM (inactive)	15.5 µM (inactive)	99.3 µM (inactive)	> 100 µM (inactive)
CC1=C2C(=O)O[C@@H](c3ccoc3)[C@]2(C)CCC1 [FRAXINELLONE]	> 100 µM (inactive)	> 100 µM (inactive)	> 100 µM (inactive)	> 100 µM (inactive)	> 100 µM (inactive)	> 100 µM (inactive)	> 100 µM (inactive)	> 100 µM (inactive)	> 100 µM (inactive)	77.1 µM (inactive)	> 100 µM (inactive)	> 100 µM (inactive)	> 100 µM (inactive)	> 100 µM (inactive)	> 100 µM (inactive)	> 100 µM (inactive)
CC(C)(O)[C@@H]1CC[C@@]2(C)CCC[C@H](O)[C@H]2C1	> 100 µM (inactive)	> 100 µM (inactive)	> 100 µM (inactive)	> 100 µM (inactive)	> 100 µM (inactive)	> 100 µM (inactive)	> 100 µM (inactive)	> 100 µM (inactive)	> 100 µM (inactive)	> 100 µM (inactive)	> 100 µM (inactive)	> 100 µM (inactive)	> 100 µM (inactive)	> 100 µM (inactive)	> 100 µM (inactive)	> 100 µM (inactive)
CC12c3ccccc3C(OC=O)(c3ccccc31)C1(C)c3ccccc3C2(OC=O)c2ccccc21	> 100 µM (inactive)	> 100 µM (inactive)	> 100 µM (inactive)	> 100 µM (inactive)	> 100 µM (inactive)	> 100 µM (inactive)	> 100 µM (inactive)	> 100 µM (inactive)	> 100 µM (inactive)	81.1 µM (inactive)	> 100 µM (inactive)	> 100 µM (inactive)	> 100 µM (inactive)	18.4 µM (inactive)	> 100 µM (inactive)	95.5 µM (inactive)
O=C(O)CCSC(=O)Nc1cccc(F)c1	> 100 µM (inactive)	–	0.228 µM (active)	> 100 µM (inactive)	> 100 µM (inactive)	> 100 µM (inactive)	24.3 µM (inactive)	> 100 µM (inactive)	> 100 µM (inactive)	–	18.3 µM (inactive)	> 100 µM (inactive)	–	> 100 µM (inactive)	40.6 µM (inactive)	> 100 µM (inactive)
CCOC(=O)C(Cc1ccc([N+](=O)[O-])cc1)NC(=O)CC1c2ccccc2-c2ccccc21 (stereo not given)	> 100 µM (inactive)	55 µM (inactive)	> 100 µM (inactive)	–	> 100 µM (inactive)	> 100 µM (inactive)	50.7 µM (inactive)	81.8 µM (inactive)	> 100 µM (inactive)	26.1 µM (inactive)	22.9 µM (inactive)	> 100 µM (inactive)	–	> 100 µM (inactive)	> 100 µM (inactive)	43.9 µM (inactive)
CCOC(=O)CCC1(C(=O)OC)CCCC1=O (stereo not given)	> 100 µM (inactive)	–	–	> 100 µM (inactive)	> 100 µM (inactive)	> 100 µM (inactive)	> 100 µM (inactive)	> 100 µM (inactive)	> 100 µM (inactive)	> 100 µM (inactive)	–	–	> 100 µM (inactive)	–	> 100 µM (inactive)	> 100 µM (inactive)
COC(=O)C1CC/C(=N\c2cccc(C(F)(F)F)c2)N1 (stereo not given)	> 100 µM (inactive)	> 100 µM (inactive)	> 100 µM (inactive)	> 100 µM (inactive)	> 100 µM (inactive)	> 100 µM (inactive)	> 100 µM (inactive)	> 100 µM (inactive)	> 100 µM (inactive)	> 100 µM (inactive)	> 100 µM (inactive)	> 100 µM (inactive)	–	–	> 100 µM (inactive)	> 100 µM (inactive)
CCOC(=O)/C(=C/c1ccc(C(F)(F)F)cc1)N(CC)CC	> 100 µM (inactive)	78.9 µM (inactive)	35.4 µM (inactive)	87.1 µM (inactive)	46.1 µM (inactive)	> 100 µM (inactive)	72.3 µM (inactive)	38.8 µM (inactive)	> 100 µM (inactive)	> 100 µM (inactive)	> 100 µM (inactive)	48.4 µM (inactive)	32.7 µM (inactive)	> 100 µM (inactive)	–	41 µM (inactive)
Cc1cc(C)nc(NS(=O)(=O)c2ccc(NC(=O)c3cccc4c(Nc5ccc(S(=O)(=O)Nc6nc(C)cc(C)n6)cc5)c5ccc(Cl)cc5nc34)cc2)n1	26.1 µM (inactive)	35.6 µM (inactive)	23.1 µM (inactive)	> 100 µM (inactive)	13.4 µM (inactive)	29.2 µM (inactive)	28.6 µM (inactive)	41.1 µM (inactive)	28.2 µM (inactive)	17.1 µM (inactive)	37.4 µM (inactive)	–	20.1 µM (inactive)	–	17.5 µM (inactive)	27.5 µM (inactive)
Sc1nnc(C(c2ccccc2)c2ccccc2)[nH]1	> 100 µM (inactive)	–	> 100 µM (inactive)	> 100 µM (inactive)	> 100 µM (inactive)	> 100 µM (inactive)	> 100 µM (inactive)	> 100 µM (inactive)	–	–	–	> 100 µM (inactive)	> 100 µM (inactive)	–	> 100 µM (inactive)	> 100 µM (inactive)
CCOC(=O)C1N(S(=O)(=O)c2ccc(C)cc2)CCC12C(c1ccc(OC)cc1)NC1CCCCC12 (stereo not given)	> 100 µM (inactive)	27.2 µM (inactive)	> 100 µM (inactive)	> 100 µM (inactive)	> 100 µM (inactive)	> 100 µM (inactive)	> 100 µM (inactive)	> 100 µM (inactive)	> 100 µM (inactive)	28.9 µM (inactive)	> 100 µM (inactive)	> 100 µM (inactive)	> 100 µM (inactive)	–	> 100 µM (inactive)	70.8 µM (inactive)
OC1c2ccccc2C2(O)C1C(c1ccccc1)C(c1ccccc1)C2(O)c1ccccc1 (stereo not given)	5.71 µM (inactive)	19.5 µM (inactive)	10.4 µM (inactive)	10.7 µM (inactive)	13.4 µM (inactive)	5.4 µM (inactive)	6.79 µM (inactive)	11.4 µM (inactive)	4.65 µM (inactive)	12.1 µM (inactive)	13.7 µM (inactive)	–	7.13 µM (inactive)	–	4.88 µM (inactive)	8.17 µM (inactive)
c1ccc(C2Nc3ccccc3C3OCCCC23)cc1 (stereo not given)	14.6 µM (inactive)	47.3 µM (inactive)	11.6 µM (inactive)	38.7 µM (inactive)	27 µM (inactive)	12.8 µM (inactive)	25.6 µM (inactive)	20.5 µM (inactive)	20.1 µM (inactive)	–	–	14.8 µM (inactive)	5.06 µM (inactive)	–	–	17.8 µM (inactive)
CCC(C)NC1=C(NC(C)=O)C(=O)c2ccccc2C1=O (stereo not given)	43.9 µM (inactive)	> 75 µM (inactive)	> 75 µM (inactive)	> 75 µM (inactive)	> 75 µM (inactive)	15.6 µM (inactive)	> 75 µM (inactive)	> 75 µM (inactive)	13.4 µM (inactive)	> 75 µM (inactive)	> 75 µM (inactive)	> 75 µM (inactive)	> 75 µM (inactive)	–	40.6 µM (inactive)	> 75 µM (inactive)

Source: ChEMBL document CHEMBL1201862, “PubChem BioAssay data set” (2004)
